Data taken from article PMC6413085, “A Validated HPLC-MS/MS Assay for 14-O-[(4,6-Diaminopyrimidine-2-yl)thioacetyl] Mutilin in Biological Samples and Its Pharmacokinetic, Distribution and Excretion via Urine and Feces in Rats” (Molecules, 2019).
Where two headings read alike, the source gives them in different places.

Legend:
[1] = Excretion via urine and feces study in rats; assay type: in vivo, Sprague-Dawley rats; conditions: rat, 75 mg/kg
Description: Excretion via urine and feces was studied in another six rats (half male and half female). After the rats were administered via a single i.v., i.m. and p.o. dose (75 mg/kg) of DPTM, urine and feces samples were collected at 0–4, 4–8, 8–12, 12–24, 24–36, 36–48, 48–72, 72–96, 96–144, 144–192 and 192–240 h intervals in plastic centrifuge tubes and stored at −70 °C until analysis. For quantitative analysis, the fecal samples were dried at 45 °C for 24 h and prepared by the established sample treatment procedure. The urinary samples were prepared by the established sample treatment procedure directly. The obtained samples were injected into the HPLC-MS/MS system for analysis.

[2] = test system: Gram-positive bacteria, including methicillin-resistant Staphylococcus aureus (MRSA), Staphylococcus aureus, Bacillus subtilis; design: method as in PMID 27940400; conditions: S. aureus, B. subtilis; cited from earlier work
[3] = Pharmacokinetic study of DPTM in rats after i.v., i.m. and p.o. administration (HPLC-MS/MS, non-compartmental); assay type: in vivo; conditions: Sprague-Dawley, plasma, rat; for Tmax: median (min–max); for bioavailability: read-out: F, absolute bioavailability; for MRT last: read-out: MRT0–t; for CL renal: read-out: CLR(0–t) renal clearance; for Vd: read-out: Vss
Description: After administration of three i.v., i.m. and p.o. dose (10, 25 and 75 mg/kg) of DPTM to rats, the pharmacokinetic profiles of DPTM were quantified by the validated HPLC-MS/MS methods. […] Blood samples (approximately 200 µL) were collected into heparinized tubes through an indwelling catheter inserted in the jugular vein [30] at 0.083, 0.166, 0.5, 1, 2, 4, 6, 8, 12 and 24 h after i.v. dosing and at 0.083, 0.166, 0.5, 1, 2, 4, 6, 8, 12, 24 and 48 h after i.m. or p.o. dosing. The samples were immediately centrifuged (4000 rpm for 10 min) and the supernatants were taken out and stored in a freezer at −70 °C until analysis. The drug was extracted with acetonitrile using the condition previously described. Then, an aliquot of the reconstituted extracts was transferred and filtrated through a 0.22-μm cellulose membrane filter and 10 μL was injected into the HPLC-MS/MS system. A non-compartmental model was used to determine the pharmacokinetic parameters of DPTM. Pharmacokinetic parameters, including maximum plasma concentration (Cmax), time (Tmax), area under the plasma concentration versus time curve from zero to last sampling time (AUC0−t) and elimination half-life (t1/2) were calculated using WinNonlin software (version 2.1, Pharsight, Mountain View, CA, USA). The absolute bioavailability was calculated as follows:F = (AUCextravascular/(AUCi.v.) × (dosei.v./doseextravascular) × 100%. The data are presented as mean ± standard deviation (SD) except for Tmax values using median (minimum value–maximum value).

SMILES: C=CC1(C)CC(OC(=O)CSc2nc(N)cc(N)n2)C2(C)C(C)CCC3(CCC(=O)C32)C(C)C1O (centres unmarked) [DPTM, 14-O-[(4,6-Diaminopyrimidine-2-yl)thioacetyl] mutilin]
- DPTM in urine (192 h) and feces (240 h) at the last acquisition time point ([1]; LLOQ 5 ng/mL): lower than that of the LLOQ
- prototype drug excreted in urine at 192 h ([1]; i.m.): 1.39%
- prototype drug excreted in urine at 192 h ([1]; i.v.): 1.63%
- prototype drug excreted in urine at 192 h ([1]; p.o.): 1.20%
- in vitro activities against Gram-positive bacteria [2]: excellent in vitro activities
- Tmax ([3]; im, 10 mg/kg): 0.5 h
- Tmax ([3]; im, 25 mg/kg): 0.5 h
- Tmax ([3]; im, 75 mg/kg): 0.5 h
- bioavailability ([3]; im, i.m., 10 mg/kg): 68.2%
- MRT last ([3]; im, i.m., 10 mg/kg): 4.4 ± 0.3 h
- bioavailability ([3]; im, i.m., 25 mg/kg): 48.5%
- MRT last ([3]; im, i.m., 25 mg/kg): 4.8 ± 0.3 h
- CL renal ([3]; im, i.m., 75 mg/kg): 46.2 ± 3.8 mL/min
- bioavailability ([3]; im, i.m., 75 mg/kg): 15.8%
- MRT last ([3]; im, i.m., 75 mg/kg): 4.2 ± 0.8 h
- clearance ([3]; iv, 10 mg/kg): 5 mL/min/kg
- Tmax ([3]; iv, 10 mg/kg): 0.08 h
- clearance ([3]; iv, 25 mg/kg): 1.67 mL/min/kg
- Tmax ([3]; iv, 25 mg/kg): 0.08 h
- clearance ([3]; iv, 75 mg/kg): 0.5 mL/min/kg
- Tmax ([3]; iv, 75 mg/kg): 0.083 h
- MRT last ([3]; iv, i.v., 10 mg/kg): 1 ± 0.2 h
- Vd ([3]; iv, i.v., 10 mg/kg): 0.3 ± 0.1 L/kg
- MRT last ([3]; iv, i.v., 25 mg/kg): 1.3 ± 0.7 h
- Vd ([3]; iv, i.v., 25 mg/kg): 0.2 L/kg
- CL renal ([3]; iv, i.v., 75 mg/kg): 97.6 ± 9.6 mL/min
- MRT last ([3]; iv, i.v., 75 mg/kg): 1.5 ± 0.4 h
- Vd ([3]; iv, i.v., 75 mg/kg): 0.03 L/kg
- Tmax ([3]; po, 10 mg/kg): 2 h
- Tmax ([3]; po, 25 mg/kg): 2 h
- Tmax ([3]; po, 75 mg/kg): 2 h
- bioavailability ([3]; po, p.o., 10 mg/kg): 22.9%
- MRT last ([3]; po, p.o., 10 mg/kg): 12.8 ± 0.1 h
- bioavailability ([3]; po, p.o., 25 mg/kg): 24.3%
- MRT last ([3]; po, p.o., 25 mg/kg): 9.8 ± 0.2 h
- CL renal ([3]; po, p.o., 75 mg/kg): 12.2 ± 1.3 mL/min
- bioavailability ([3]; po, p.o., 75 mg/kg): 4.17%
- MRT last ([3]; po, p.o., 75 mg/kg): 6.9 ± 0.4 h
- half-life ([3]; im, 10 mg/kg, i.m., 10 mg/kg, read-out: t1/2 (converted)): 3.5 h
- AUC(0-t) ([3]; im, 10 mg/kg, rat serum, i.m., 10 mg/kg, read-out: AUC0→t): 1500 ± 100 ng·h/mL
- Cmax ([3]; im, 10 mg/kg, rat serum, i.m., 10 mg/kg, read-out: Cmax): 500 ± 100 ng/mL
- half-life ([3]; im, 25 mg/kg, i.m., 25 mg/kg, read-out: t1/2 (converted)): 3.2 ± 0.2 h
- AUC(0-t) ([3]; im, 25 mg/kg, rat serum, i.m., 25 mg/kg, read-out: AUC0→t): 2600 ± 200 ng·h/mL
- Cmax ([3]; im, 25 mg/kg, rat serum, i.m., 25 mg/kg, read-out: Cmax): 700 ± 100 ng/mL
- half-life ([3]; im, 75 mg/kg, i.m., 75 mg/kg, read-out: t1/2 (converted)): 3.3 ± 0.3 h
- AUC(0-t) ([3]; im, 75 mg/kg, i.m., range over 10, 25 and 75 mg/kg doses, read-out: area under the curve from 0 to 48 h (AUC0→t)): 1520 to 5700 ng·h/mL
- half-life ([3]; im, 75 mg/kg, i.m., range over 10, 25 and 75 mg/kg doses, read-out: half-life (t1/2)): 3.23 to 3.49 h
- AUC(0-t) ([3]; im, 75 mg/kg, rat serum, i.m., 75 mg/kg, read-out: AUC0→t): 5700 ± 200 ng·h/mL
- Cmax ([3]; im, 75 mg/kg, rat serum, i.m., 75 mg/kg, read-out: Cmax): 1800 ± 100 ng/mL
- Cmax ([3]; im, range over 10, 25 and doses, read-out: maximum concentration (Cmax) of drug in serum): 470 to 1830 ng/mL
- half-life ([3]; iv, 10 mg/kg, i.v., 10 mg/kg, read-out: t1/2 (converted)): 1.7 ± 0.1 h
- AUC(0-t) ([3]; iv, 10 mg/kg, rat serum, i.v., 10 mg/kg, read-out: AUC0→t): 2200 ± 200 ng·h/mL
- Cmax ([3]; iv, 10 mg/kg, rat serum, i.v., 10 mg/kg, read-out: Cmax): 7500 ± 400 ng/mL
- half-life ([3]; iv, 25 mg/kg, i.v., 25 mg/kg, read-out: t1/2 (converted)): 1.7 ± 0.4 h
- AUC(0-t) ([3]; iv, 25 mg/kg, rat serum, i.v., 25 mg/kg, read-out: AUC0→t): 5400 ± 200 ng·h/mL
- Cmax ([3]; iv, 25 mg/kg, rat serum, i.v., 25 mg/kg, read-out: Cmax): 16000 ± 500 ng/mL
- half-life ([3]; iv, 75 mg/kg, i.v., 75 mg/kg, read-out: t1/2 (converted)): 1.9 ± 0.5 h
- AUC(0-t) ([3]; iv, 75 mg/kg, i.v., range over 10, 25 and 75 mg/kg doses, read-out: area under the curve from 0 to 48 h (AUC0→t)): 2230 to 36000 ng·h/mL
- half-life ([3]; iv, 75 mg/kg, i.v., range over 10, 25 and 75 mg/kg doses, read-out: half-life (t1/2)): 1.7 to 1.86 h
- AUC(0-t) ([3]; iv, 75 mg/kg, rat serum, i.v., 75 mg/kg, read-out: AUC0→t): 36000 ± 300 ng·h/mL
- Cmax ([3]; iv, 75 mg/kg, rat serum, i.v., 75 mg/kg, read-out: Cmax): 65100 ± 800 ng/mL
- Cmax ([3]; iv, range over 10, 25 and doses, read-out: maximum concentration (Cmax) of drug in serum): 7540 to 65100 ng/mL
- half-life ([3]; po, 10 mg/kg, p.o., 10 mg/kg, read-out: t1/2 (converted)): 4.6 ± 0.1 h
- AUC(0-t) ([3]; po, 10 mg/kg, rat serum, p.o., 10 mg/kg, read-out: AUC0→t): 500 ± 100 ng·h/mL
- Cmax ([3]; po, 10 mg/kg, rat serum, p.o., 10 mg/kg, read-out: Cmax): 100 ng/mL
- half-life ([3]; po, 25 mg/kg, p.o., 25 mg/kg, read-out: t1/2 (converted)): 4.4 ± 0.2 h
- AUC(0-t) ([3]; po, 25 mg/kg, rat serum, p.o., 25 mg/kg, read-out: AUC0→t): 1300 ± 100 ng·h/mL
- Cmax ([3]; po, 25 mg/kg, rat serum, p.o., 25 mg/kg, read-out: Cmax): 200 ng/mL
- half-life ([3]; po, 75 mg/kg, p.o., 75 mg/kg, read-out: t1/2 (converted)): 4.7 ± 0.4 h
- AUC(0-t) ([3]; po, 75 mg/kg, p.o., range over 10, 25 and 75 mg/kg doses, read-out: area under the curve from 0 to 48 h (AUC0→t)): 510 to 1500 ng·h/mL
- half-life ([3]; po, 75 mg/kg, p.o., range over 10, 25 and 75 mg/kg doses, read-out: half-life (t1/2)): 4.38 to 4.7 h
- AUC(0-t) ([3]; po, 75 mg/kg, rat serum, p.o., 75 mg/kg, read-out: AUC0→t): 1500 ng·h/mL
- Cmax ([3]; po, 75 mg/kg, rat serum, p.o., 75 mg/kg, read-out: Cmax): 300 ± 100 ng/mL
- Cmax ([3]; po, range over 10, 25 and doses, read-out: maximum concentration (Cmax) of drug in serum): 50 to 310 ng/mL
